Laboratory results published in patent US10322118B2, “Compounds and methods for inhibiting Cif virulence factor” (priority 2012, dated 2019).
Structures can show the parent of a compound that is named as a salt.

Target: T1, Cif (Pseudomonas aeruginosa (strain UCBPP-PA14), UniProt A0A0H2ZD27)
Assay: Primary high throughput screen with fluorogenic substrate CMNGC;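 further: fluorescence of 200 µL reactions in 96-well plates read on a plate reader, inhibitor at tenfold molar excess over Cif enzyme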
Assay type: biochemical
Conditions: primary screen; test compounds at 10 μM, 1 μM Cif, 25 μM CMNGC, 60 minutes
Procedure: All high throughput screening assays were performed using 96-well plates, a 200 μL reaction volume, and a fluorescent plate reader. […] The fluorescent signal was measured after allowing the enzyme reaction to proceed for 60 minutes.
A library of 1600 FDA-approved compounds was screened for Cif inhibitory activity.
The screen was performed with only a 10-fold stoichiometric excess of inhibitor over Cif enzyme.

T1 sequence (A0A0H2ZD27 25-319 limits assumed): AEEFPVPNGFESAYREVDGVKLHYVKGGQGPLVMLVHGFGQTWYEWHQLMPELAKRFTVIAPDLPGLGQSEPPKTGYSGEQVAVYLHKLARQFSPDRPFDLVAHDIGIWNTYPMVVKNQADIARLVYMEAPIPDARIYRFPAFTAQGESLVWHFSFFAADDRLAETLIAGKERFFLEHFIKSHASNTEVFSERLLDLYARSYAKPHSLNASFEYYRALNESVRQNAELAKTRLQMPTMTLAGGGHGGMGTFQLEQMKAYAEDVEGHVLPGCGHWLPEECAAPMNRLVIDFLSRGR

Structure (SMILES) | inhibition at 10 µM [%] | % Inhibition [%]
CCOC(=O)[C@H](CCc1ccccc1)N[C@@H](C)C(=O)N1CCC[C@H]1C(=O)O [Enalapril maleate] | 31 | 
CC(O)CN1CCN(CC(=O)[O-])CCN(CC(=O)[O-])CCN(CC(=O)[O-])CC1.[Gd+3] (centres unmarked) [Gadoteridol] |  | 34
C[C@@H]1C[C@H]2[C@@H]3CCC4=CC(=O)C=C[C@]4(C)[C@@]3(F)[C@@H](O)C[C@]2(C)[C@H]1C(=O)CO [Desoxymetasone] |  | 66
CCN(CC)CCOc1ccc2c(c1)C(=O)c1cc(OCCN(CC)CC)ccc1-2 [Tilorone] | 36 | 
CC(C(=O)O)c1cccc(C(=O)c2ccccc2)c1 (centres unmarked) [Ketoprofen] | 34 | 
O=C1CC2(CCCC2)CC(=O)N1CCCCN1CCN(c2ncccn2)CC1 [Buspirone hydrochloride] | 33 | 
CC(=O)[C@@]12O[C@](C)(c3ccccc3)O[C@@H]1C[C@H]1[C@@H]3CCC4=CC(=O)CC[C@]4(C)[C@H]3CC[C@@]12C [Algestone acetophenide] |  | 38
CN(C)CCCN1c2ccccc2Sc2ccc(C(F)(F)F)cc21 [Triflupromazine hydrochloride] | 33 | 
C=CCc1ccc(O)c(OC)c1 [Eugenol] | 32 | 
CCCCCCCCCCCCCCCCOP(=O)([O-])OCC[N+](C)(C)C [Miltefosine] | 34 | 

Target: T1, Cif
Assay: Secondary screen (sextuplicate) with fluorogenic substrate CMNGC;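 further: purified enzyme assay in 96-well plates, 200 µL volume, fluorescence recorded each minute across a 60 min reaction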
Assay type: biochemical
Conditions: read-out: % Inhibition, Mean ± SD

Structure (SMILES) | inhibition at 10 µM [%]
CCOC(=O)[C@H](CCc1ccccc1)N[C@@H](C)C(=O)N1CCC[C@H]1C(=O)O [Enalapril maleate] | 4 ± 8
CCN(CC)CCOc1ccc2c(c1)C(=O)c1cc(OCCN(CC)CC)ccc1-2 [Tilorone] | 6 ± 4
CC(C(=O)O)c1cccc(C(=O)c2ccccc2)c1 (centres unmarked) [Ketoprofen] | 9 ± 5
O=C1CC2(CCCC2)CC(=O)N1CCCCN1CCN(c2ncccn2)CC1 [Buspirone hydrochloride] | -3 ± 4
CN(C)CCCN1c2ccccc2Sc2ccc(C(F)(F)F)cc21 [Triflupromazine hydrochloride] | 2 ± 6
C=CCc1ccc(O)c(OC)c1 [Eugenol] | 3 ± 4
CCCCCCCCCCCCCCCCOP(=O)([O-])OCC[N+](C)(C)C [Miltefosine] | 8 ± 4

Same assay, conditions: read-out: % Inhibition, plate 1

Structure (SMILES) | inhibition at 10 µM [%]
CCOC(=O)[C@H](CCc1ccccc1)N[C@@H](C)C(=O)N1CCC[C@H]1C(=O)O [Enalapril maleate] | -6
CCN(CC)CCOc1ccc2c(c1)C(=O)c1cc(OCCN(CC)CC)ccc1-2 [Tilorone] | 4
CC(C(=O)O)c1cccc(C(=O)c2ccccc2)c1 (centres unmarked) [Ketoprofen] | 2
O=C1CC2(CCCC2)CC(=O)N1CCCCN1CCN(c2ncccn2)CC1 [Buspirone hydrochloride] | 0
CN(C)CCCN1c2ccccc2Sc2ccc(C(F)(F)F)cc21 [Triflupromazine hydrochloride] | 4
C=CCc1ccc(O)c(OC)c1 [Eugenol] | 4
CCCCCCCCCCCCCCCCOP(=O)([O-])OCC[N+](C)(C)C [Miltefosine] | 4

Same assay, conditions: read-out: % Inhibition, plate 2

Structure (SMILES) | inhibition at 10 µM [%]
CCOC(=O)[C@H](CCc1ccccc1)N[C@@H](C)C(=O)N1CCC[C@H]1C(=O)O [Enalapril maleate] | 13
CCN(CC)CCOc1ccc2c(c1)C(=O)c1cc(OCCN(CC)CC)ccc1-2 [Tilorone] | 5
CC(C(=O)O)c1cccc(C(=O)c2ccccc2)c1 (centres unmarked) [Ketoprofen] | 14
O=C1CC2(CCCC2)CC(=O)N1CCCCN1CCN(c2ncccn2)CC1 [Buspirone hydrochloride] | -3
CN(C)CCCN1c2ccccc2Sc2ccc(C(F)(F)F)cc21 [Triflupromazine hydrochloride] | 10
C=CCc1ccc(O)c(OC)c1 [Eugenol] | 0
CCCCCCCCCCCCCCCCOP(=O)([O-])OCC[N+](C)(C)C [Miltefosine] | 3

Same assay, conditions: read-out: % Inhibition, plate 3

Structure (SMILES) | inhibition at 10 µM [%]
CCOC(=O)[C@H](CCc1ccccc1)N[C@@H](C)C(=O)N1CCC[C@H]1C(=O)O [Enalapril maleate] | 1
CCN(CC)CCOc1ccc2c(c1)C(=O)c1cc(OCCN(CC)CC)ccc1-2 [Tilorone] | 5
CC(C(=O)O)c1cccc(C(=O)c2ccccc2)c1 (centres unmarked) [Ketoprofen] | 9
O=C1CC2(CCCC2)CC(=O)N1CCCCN1CCN(c2ncccn2)CC1 [Buspirone hydrochloride] | 0
CN(C)CCCN1c2ccccc2Sc2ccc(C(F)(F)F)cc21 [Triflupromazine hydrochloride] | -2
C=CCc1ccc(O)c(OC)c1 [Eugenol] | 7
CCCCCCCCCCCCCCCCOP(=O)([O-])OCC[N+](C)(C)C [Miltefosine] | 11

Same assay, conditions: read-out: % Inhibition, plate 4

Structure (SMILES) | inhibition at 10 µM [%]
CCOC(=O)[C@H](CCc1ccccc1)N[C@@H](C)C(=O)N1CCC[C@H]1C(=O)O [Enalapril maleate] | 9
CCN(CC)CCOc1ccc2c(c1)C(=O)c1cc(OCCN(CC)CC)ccc1-2 [Tilorone] | 11
CC(C(=O)O)c1cccc(C(=O)c2ccccc2)c1 (centres unmarked) [Ketoprofen] | 8
O=C1CC2(CCCC2)CC(=O)N1CCCCN1CCN(c2ncccn2)CC1 [Buspirone hydrochloride] | -1
CN(C)CCCN1c2ccccc2Sc2ccc(C(F)(F)F)cc21 [Triflupromazine hydrochloride] | 1
C=CCc1ccc(O)c(OC)c1 [Eugenol] | 4
CCCCCCCCCCCCCCCCOP(=O)([O-])OCC[N+](C)(C)C [Miltefosine] | 10

Same assay, conditions: read-out: % Inhibition, plate 5

Structure (SMILES) | inhibition at 10 µM [%]
CCOC(=O)[C@H](CCc1ccccc1)N[C@@H](C)C(=O)N1CCC[C@H]1C(=O)O [Enalapril maleate] | 10
CCN(CC)CCOc1ccc2c(c1)C(=O)c1cc(OCCN(CC)CC)ccc1-2 [Tilorone] | 10
CC(C(=O)O)c1cccc(C(=O)c2ccccc2)c1 (centres unmarked) [Ketoprofen] | 15
O=C1CC2(CCCC2)CC(=O)N1CCCCN1CCN(c2ncccn2)CC1 [Buspirone hydrochloride] | -2
CN(C)CCCN1c2ccccc2Sc2ccc(C(F)(F)F)cc21 [Triflupromazine hydrochloride] | 8
C=CCc1ccc(O)c(OC)c1 [Eugenol] | 6
CCCCCCCCCCCCCCCCOP(=O)([O-])OCC[N+](C)(C)C [Miltefosine] | 11

Same assay, conditions: read-out: % Inhibition, plate 6

Structure (SMILES) | inhibition at 10 µM [%]
CCOC(=O)[C@H](CCc1ccccc1)N[C@@H](C)C(=O)N1CCC[C@H]1C(=O)O [Enalapril maleate] | -3
CCN(CC)CCOc1ccc2c(c1)C(=O)c1cc(OCCN(CC)CC)ccc1-2 [Tilorone] | 0
CC(C(=O)O)c1cccc(C(=O)c2ccccc2)c1 (centres unmarked) [Ketoprofen] | 4
O=C1CC2(CCCC2)CC(=O)N1CCCCN1CCN(c2ncccn2)CC1 [Buspirone hydrochloride] | -11
CN(C)CCCN1c2ccccc2Sc2ccc(C(F)(F)F)cc21 [Triflupromazine hydrochloride] | -6
C=CCc1ccc(O)c(OC)c1 [Eugenol] | -4
CCCCCCCCCCCCCCCCOP(=O)([O-])OCC[N+](C)(C)C [Miltefosine] | 11

Same assay, conditions: secondary screen, 10 μM, mean of six plates

Structure (SMILES) | % Inhibition, Mean ± SD [%]
CC(O)CN1CCN(CC(=O)[O-])CCN(CC(=O)[O-])CCN(CC(=O)[O-])CC1.[Gd+3] (centres unmarked) [Gadoteridol] | 11 ± 5
C[C@@H]1C[C@H]2[C@@H]3CCC4=CC(=O)C=C[C@]4(C)[C@@]3(F)[C@@H](O)C[C@]2(C)[C@H]1C(=O)CO [Desoxymetasone] | 39 ± 4
CC(=O)[C@@]12O[C@](C)(c3ccccc3)O[C@@H]1C[C@H]1[C@@H]3CCC4=CC(=O)CC[C@]4(C)[C@H]3CC[C@@]12C [Algestone acetophenide] | −3 ± 5

Same assay, conditions: secondary screen, 10 μM, plate number 1

Structure (SMILES) | % Inhibition, plate 1 [%]
CC(O)CN1CCN(CC(=O)[O-])CCN(CC(=O)[O-])CCN(CC(=O)[O-])CC1.[Gd+3] (centres unmarked) [Gadoteridol] | 7
C[C@@H]1C[C@H]2[C@@H]3CCC4=CC(=O)C=C[C@]4(C)[C@@]3(F)[C@@H](O)C[C@]2(C)[C@H]1C(=O)CO [Desoxymetasone] | 34
CC(=O)[C@@]12O[C@](C)(c3ccccc3)O[C@@H]1C[C@H]1[C@@H]3CCC4=CC(=O)CC[C@]4(C)[C@H]3CC[C@@]12C [Algestone acetophenide] | −5

Same assay, conditions: secondary screen, 10 μM, plate number 2

Structure (SMILES) | % Inhibition, plate 2 [%]
CC(O)CN1CCN(CC(=O)[O-])CCN(CC(=O)[O-])CCN(CC(=O)[O-])CC1.[Gd+3] (centres unmarked) [Gadoteridol] | 3
C[C@@H]1C[C@H]2[C@@H]3CCC4=CC(=O)C=C[C@]4(C)[C@@]3(F)[C@@H](O)C[C@]2(C)[C@H]1C(=O)CO [Desoxymetasone] | 42
CC(=O)[C@@]12O[C@](C)(c3ccccc3)O[C@@H]1C[C@H]1[C@@H]3CCC4=CC(=O)CC[C@]4(C)[C@H]3CC[C@@]12C [Algestone acetophenide] | −2

Same assay, conditions: secondary screen, 10 μM, plate number 3

Structure (SMILES) | % Inhibition, plate 3 [%]
CC(O)CN1CCN(CC(=O)[O-])CCN(CC(=O)[O-])CCN(CC(=O)[O-])CC1.[Gd+3] (centres unmarked) [Gadoteridol] | 10
C[C@@H]1C[C@H]2[C@@H]3CCC4=CC(=O)C=C[C@]4(C)[C@@]3(F)[C@@H](O)C[C@]2(C)[C@H]1C(=O)CO [Desoxymetasone] | 34
CC(=O)[C@@]12O[C@](C)(c3ccccc3)O[C@@H]1C[C@H]1[C@@H]3CCC4=CC(=O)CC[C@]4(C)[C@H]3CC[C@@]12C [Algestone acetophenide] | 0

Same assay, conditions: secondary screen, 10 μM, plate number 4

Structure (SMILES) | % Inhibition, plate 4 [%]
CC(O)CN1CCN(CC(=O)[O-])CCN(CC(=O)[O-])CCN(CC(=O)[O-])CC1.[Gd+3] (centres unmarked) [Gadoteridol] | 13
C[C@@H]1C[C@H]2[C@@H]3CCC4=CC(=O)C=C[C@]4(C)[C@@]3(F)[C@@H](O)C[C@]2(C)[C@H]1C(=O)CO [Desoxymetasone] | 40
CC(=O)[C@@]12O[C@](C)(c3ccccc3)O[C@@H]1C[C@H]1[C@@H]3CCC4=CC(=O)CC[C@]4(C)[C@H]3CC[C@@]12C [Algestone acetophenide] | −2

Same assay, conditions: secondary screen, 10 μM, plate number 5

Structure (SMILES) | % Inhibition, plate 5 [%]
CC(O)CN1CCN(CC(=O)[O-])CCN(CC(=O)[O-])CCN(CC(=O)[O-])CC1.[Gd+3] (centres unmarked) [Gadoteridol] | 16
C[C@@H]1C[C@H]2[C@@H]3CCC4=CC(=O)C=C[C@]4(C)[C@@]3(F)[C@@H](O)C[C@]2(C)[C@H]1C(=O)CO [Desoxymetasone] | 42
CC(=O)[C@@]12O[C@](C)(c3ccccc3)O[C@@H]1C[C@H]1[C@@H]3CCC4=CC(=O)CC[C@]4(C)[C@H]3CC[C@@]12C [Algestone acetophenide] | 3

Same assay, conditions: secondary screen, 10 μM, plate number 6

Structure (SMILES) | % Inhibition, plate 6 [%]
CC(O)CN1CCN(CC(=O)[O-])CCN(CC(=O)[O-])CCN(CC(=O)[O-])CC1.[Gd+3] (centres unmarked) [Gadoteridol] | 15
C[C@@H]1C[C@H]2[C@@H]3CCC4=CC(=O)C=C[C@]4(C)[C@@]3(F)[C@@H](O)C[C@]2(C)[C@H]1C(=O)CO [Desoxymetasone] | 41
CC(=O)[C@@]12O[C@](C)(c3ccccc3)O[C@@H]1C[C@H]1[C@@H]3CCC4=CC(=O)CC[C@]4(C)[C@H]3CC[C@@]12C [Algestone acetophenide] | −10
